Columns and labels:
[1] = test system: NQO1-ARE; experiment: NQO1-ARE luciferase reporter assay in HuH7 cells (Nrf2 transcriptional activity); assay type: cell-based; conditions: Homo sapiens, Huh-7, 62.5 nM compound, 18 h, Firefly normalized to Renilla, over DMSO vehicle control
Description: NQO1-ARE Luciferase Reporter Assay.
This assay allows for quantitative assessment of the endogenous activity of the Nrf2 transcription factor in cultured mammalian cells. Expression of Firefly luciferase from NQO1-ARE luciferase reporter plasmid is controlled by binding of Nrf2 to a specific enhancer sequence corresponding to the antioxidant response element (ARE) that was identified in the promoter region of the human NADPH:quinone oxidoreductase 1 (NQO1) gene (Xie et al., 1995). The plasmid was constructed by inserting a sequence:
encompassing the human NQO1-ARE into the pLuc-MCS vector using HindIII/XhoI cloning sites (GenScript Corp., Piscataway, N.J.). The assay is performed in HuH7 cells maintained in DMEM (Invitrogen) supplemented with 10% FBS and 100 U/ml (each) of penicillin and streptomycin. For the assay, cells are plated in 96-well plates at 17,000 cells per well. Twenty four hours later, the cells are co-transfected with 50 ng each of NQO1-ARE reporter plasmid and pRL-TK plasmid using Lipofectamine 2000 transfection reagent (Invitrogen). pRL-TK plasmid constitutively expresses Renilla luciferase and is used as an internal control for normalization of transfection levels. Thirty hours after transfection, the cells are treated with compounds (at concentrations ranging from 0 to 1 μM) for eighteen hours. Firefly and Renilla luciferase activity is assayed by Dual-Glo Luciferase Assay (Promega Corp., Madison, Wis.), the luminescence signal is measured on an L-Max II luminometer (Molecular Devices). Firefly luciferase activity is normalized to the Renilla activity, and fold induction over a vehicle control (DMSO) of normalized Firefly activity is calculated. The fold induction at 62.5 nM concentration is used for comparing relative potencies of compounds to induce Nrf2 transcriptional activity. See Xie et al., 1995, which is incorporated herein by reference.

[2] = test system: IFNγ-induced NO production in RAW264.7; experiment: Suppression of IFNγ-induced NO production in RAW264.7 mouse macrophages (Griess reagent, normalized to WST-1 cell viability); assay type: cell-based; conditions: RAW264.7 cells, 2 h pre-treatment with drug (0-200 nM), then IFNγ for 24 h
Method: Nitric Oxide Production and Cell Viability. […] On the next day, cells were pre-treated with DMSO or drug (0-200 nM dose range) for 2 hours, and then treated with recombinant mouse IFNγ (R&D Systems) for 24 hours. Nitric Oxide concentration in media was determined using the Griess reagent system (Promega). Cell viability was determined using WST-1 reagent (Roche). IC50 values were determined based on the suppression of IFNγ induced Nitric Oxide production normalized to cell viability.

| SMILES | fold induction at 0.0625 µM [1] | IC50 [2] [nM] |
| --- | --- | --- |
| Cc1nnc([C@]23CCC(C)(C)C[C@H]2[C@H]2C(=O)C=C4[C@@]5(C)C=C(C#N)C(=O)[C@@H](C)[C@@H]5CC[C@@]4(C)[C@]2(C)CC3)o1 [TX63616] | 4.4 | 0.7 |
| C[C@@H]1C(=O)C(C#N)=C[C@]2(C)C3=CC(=O)[C@@H]4[C@@H]5CC(C)(C)CC[C@]5(CO)CC[C@@]4(C)[C@]3(C)CC[C@@H]12 [TX63545] | 7.2 | 0.7 |
| C[C@@H]1C(=O)C(C#N)=C[C@]2(C)C3=CC(=O)[C@]45OC(=O)[C@@]6(CCC(C)(C)C[C@H]64)CC[C@@]5(C)[C@]3(C)CC[C@@H]12 [TX63555] | 6.1 | 1.4 |
| COC(=O)[C@]12CCC(C)(C)C[C@H]1[C@H]1C(=O)C[C@@H]3[C@@]4(C)C=C(C#N)C(=O)[C@@H](C)[C@@H]4CC[C@@]3(C)[C@]1(C)CC2 [TX63749] | 2.3 | 3 |
| C[C@@H]1C(=O)C(C#N)=C[C@]2(C)C3=CC(=O)[C@@H]4[C@@H]5CC(C)(C)CC[C@]5(C(=O)n5ccnc5)CC[C@@]4(C)[C@]3(C)CC[C@@H]12 [TX63522] | 4.1 | 0.4 |
| C[C@@H]1C(=O)C(C#N)=C[C@]2(C)C3=CC(=O)[C@@H]4[C@@H]5CC(C)(C)CC[C@]5(C(=O)O)CC[C@@]4(C)[C@]3(C)CC[C@@H]12 [TX63520] | 5.3 | 10.1 |
| C[C@@H]1C(=O)C(C#N)=C[C@]2(C)C3=CC(=O)[C@@H]4[C@@H]5CC(C)(C)CC[C@]5(NC(=O)C(C)(F)F)CC[C@@]4(C)[C@]3(C)CC[C@@H]12 [TX63682] | 5.7 | 1.1 |
| COC(=O)[C@]12CCC(C)(C)C[C@H]1[C@H]1C(=O)C=C3[C@@]4(C)C=C(C#N)C(=O)[C@@H](C)[C@@H]4CC[C@@]3(C)[C@]1(C)CC2 [TX63435] | 7.2 | 1 |
| C[C@@H]1C(=O)C(C#N)=C[C@]2(C)[C@H]3CC(=O)[C@@H]4[C@@H]5CC(C)(C)CC[C@]5(C(=O)NCC(F)(F)F)CC[C@@]4(C)[C@]3(C)CC[C@@H]12 [TX63807] |  | 5.8 |
| CNC(=O)N[C@]12CCC(C)(C)C[C@H]1[C@H]1C(=O)C=C3[C@@]4(C)C=C(C#N)C(=O)[C@@H](C)[C@@H]4CC[C@@]3(C)[C@]1(C)CC2 [TX63876] |  | 7.3 |
| C[C@@H]1C(=O)C(C#N)=C[C@]2(C)C3=CC(F)[C@]45OC(=O)[C@@]6(CCC(C)(C)C[C@H]64)CC[C@@]5(C)[C@]3(C)CC[C@@H]12 (stereo partly shown) [TX63907] |  | 1.6 |
| C[C@@H]1C(=O)C(C#N)=C[C@]2(C)C3=CC(=O)[C@@H]4[C@@H]5CC(C)(C)CC[C@]5(C(=O)N5CCCC5)CC[C@@]4(C)[C@]3(C)CC[C@@H]12 [TX63823] |  | 0.8 |
| C[C@@H]1C(=O)C(C#N)=C[C@]2(C)C3=CC(=O)[C@@H]4[C@@H]5CC(C)(C)CC[C@]5(NS(=O)(=O)CC(F)(F)F)CC[C@@]4(C)[C@]3(C)CC[C@@H]12 [TX63818] |  | 0.8 |
| CCNC(=O)[C@]12CCC(C)(C)C[C@H]1[C@H]1C(=O)C=C3[C@@]4(C)C=C(C#N)C(=O)[C@@H](C)[C@@H]4CC[C@@]3(C)[C@]1(C)CC2 [TX63521] |  | 1.1 |
| C[C@@H]1C(=O)C(C#N)=C[C@]2(C)C3=CC(=O)[C@@H]4[C@@H]5CC(C)(C)CC[C@]5(C(=O)NCC(F)(F)F)CC[C@@]4(C)[C@]3(C)CC[C@@H]12 [TX63523] | 5.6 | 1 |
| COCC(=O)NNC(=O)[C@]12CCC(C)(C)C[C@H]1[C@H]1C(=O)C=C3[C@@]4(C)C=C(C#N)C(=O)[C@@H](C)[C@@H]4CC[C@@]3(C)[C@]1(C)CC2 [TX63784] |  | 7.5 |
